The target in series [1] is ^3 H-Diazepam binding, rat brain cortical fragments. The series can be described thus: ^3 H-Diazepam binding assay. To be noted: inhibition of ^3 H-Diazepam binding by 50%. The method, then: Rat brain cortical fragments are prepared and the binding procedures performed as described by Mohler and Okada (Life Sciences, 20, 2101, 1977) except that Tris buffer is substituted for Krebs buffer. Drugs are assayed in triplicate. Radioactivity is measured by liquid scintillation counting.

In series [2] the test system is convulsive seizures (Ptz. administered intraveneously). The series can be described thus: Intravenous antipentylenetetrazole (Ptz.) test, oral compound, protection against convulsions. The class given is in vivo, Male CF-1 mice. To be noted: Mus musculus. How it is done: (§1) Utilizing the procedures given below, the compounds of formula I synthesized in the previous examples were assayed for antimetrezol activity and ^3 H-diazepam binding activity. The 24 hour acute toxicity (LD-50, expressed as mg/kg) of each of these compounds was also determined in the standard fashion.
Male CF-1 mice, 45-54 days old, housed in the same facility for one week and food-deprived for about 24 hours are used in this test. […] One hour later, Ptz. is administered intraveneously at 70 mg/kg (convulsant dose 100) and animals are observed 30 seconds for protection against convulsions. If the compound is active orally 8 animals are used per dose level. […] Calculations: The ED50 values and 95% fiducial limits are calculated using a computer program based on the method of D. J. Finney ("Probit Analysis", Cambridge University Press, Cambridge, England, 1971).

Series [3] can be described thus: 24 hour acute toxicity (LD-50). The note with it: in vivo, ">" = not tested above indicated value. How it is done: as §1
The mark [4] stands for this setting: compounds of formula I, read-out: ^3 H-Dz. IC50.
Setting [5] is: compounds of formula I, oral, 1 h before Ptz. 70 mg/kg i.v., mice, ">" = not tested above indicated value, read-out: Ptz. ED50.
The mark [6] stands for this setting: po, 1 h, read-out: ED50 (95% Fiducial Limits).

Read-outs that look alike come from different tables or passages of the source.

A word on the IC50: it is the concentration at which inhibition is half-maximal. For orientation: ED50 means the midpoint of the dose-response relation. For orientation: LD50 means the dose at which mortality reaches 50%. Low readings indicate greater toxicity, high ones lower toxicity. As for `NC(=O)C1CCN(c2cc(-c3ccc(F)cc3)nc3ccc(Cl)cc23)CC1` [1-[6-Chloro-2-(4-fluorophenyl)-4-quinolinyl]-4-piperidinecarboxamide], the IC50 in series [1] (setting [4]) came to 28 nM. Moreover, in series [2] (setting [5]), the 50% effective dose (ED50) is 29 mg/kg. The LD50 at 24 h in series [3] is over 1000 mg/kg.
`Cc1ccc2nc(-c3ccc(Cl)cc3)cc(N3CCC(C(N)=O)CC3)c2c1` [1-[2-(4-Chlorophenyl)-6-methyl-4-quinolinyl]-4-piperidinecarboxamide]: the IC50 in series [1] (setting [4]) was found to be 460 nM.
Take `CNC1=Nc2ccc(Cl)cc2C(c2ccccc2)=[N+]([O-])C1` [Chlordiazepoxide, reference compound]: in series [2] (setting [6]), the ED50 worked out at 3.9 mg/kg.
Regarding `CNC(=O)C1CCN(c2cc(-c3ccc(Cl)cc3)nc3ccc(F)cc23)CC1` [1-[6-Fluoro-2-(4-chlorophenyl)-4-quinolinyl]-N-methyl-4-piperidinecarboxamide], the concentration for half-maximal inhibition (IC50) in series [1] (setting [4]) is 70 nM. In addition, the 50% effective dose (ED50) in series [2] (setting [5]) was over 300 mg/kg. For the same molecule, the 50% lethal dose (LD50) at 24 h in series [3] is over 1000 mg/kg.
The matching figures for `NC(=O)C1CCN(c2cc(-c3ccccc3)nc3ccc(Cl)cc23)CC1` [1-[6-Chloro-2-phenyl-4-quinolinyl]-4-piperidinecarboxamide]: 96 nM, 50 mg/kg and over 1000 mg/kg.
On to `CNC(=O)C1CCN(c2cc(-c3ccc(Cl)cc3)nc3ccccc23)CC1` [1-[2-(4-Chlorophenyl)-4-quinolinyl]-N-methyl-4-piperidinecarboxamide], for which the IC50 in series [1] (setting [4]) came to 19.5 nM. In addition, the 50% effective dose (ED50) in series [2] (setting [5]) is 9 mg/kg. Besides, the LD50 at 24 h in series [3] was over 1000 mg/kg.
Take `NC(=O)C1CCN(c2cc(-c3ccc(Cl)cc3)nc3ccc(Cl)cc23)CC1` [1-[6-chloro-2-(4-chlorophenyl)-4-quinolinyl]-4-piperidinecarboxamide]: the half-maximal inhibitory concentration (IC50) in series [1] (setting [4]) was determined as 205 nM.
For the molecule `NC(=O)C1CCN(c2cc(-c3ccc(Br)cc3)nc3ccccc23)CC1` [1-[2-(4-Bromophenyl)-4-quinolinyl]-4-piperidinecarboxamide], the IC50 in series [1] (setting [4]) stood at 35 nM. In addition, in series [2] (setting [5]), the ED50 stood at 41 mg/kg. Further, in series [3], the LD50 at 24 h was over 1000 mg/kg.
With `Cc1ccc(-c2cc(N3CCC(C(N)=O)CC3)c3cc(C)ccc3n2)cc1` [1-[6-Methyl-2-(4-methylphenyl)-4-quinolinyl]-4-piperidinecarboxamide], the concentration for half-maximal inhibition (IC50) in series [1] (setting [4]) came out at 290 nM.
With `Cc1ccc(-c2cc(N3CCC(C(N)=O)CC3)c3cc(F)ccc3n2)cc1` [1-[6-Fluoro-2-(4-methylphenyl)-4-quinolinyl]-4-piperidinecarboxamide], in series [1] (setting [4]), the IC50 turned out to be 5.4 nM. The median effective dose (ED50) in series [2] (setting [5]) came to 88 mg/kg. In series [3], the 50% lethal dose (LD50) at 24 h is over 1000 mg/kg.
On to `Cc1ccc2nc(-c3ccccc3)cc(N3CCC(C(N)=O)CC3)c2c1` [1-[6-Methyl-2-phenyl-4-quinolinyl]-4-piperidinecarboxamide], for which, in series [1] (setting [4]), the IC50 came to 28 nM. Further, the median effective dose (ED50) in series [2] (setting [5]) was determined as 90 mg/kg. This molecule had an LD50 at 24 h in series [3] of over 1000 mg/kg.
The matching figures for `NC(=O)C1CCN(c2cc(-c3ccc(Cl)cc3)nc3ccc(F)cc23)CC1` [1-[2-(4-Chlorophenyl)-6-fluoro-4-quinolinyl]-4-piperidinecarboxamide]: 36 nM, 15 mg/kg and over 1000 mg/kg.
For the molecule `CN(C)C(=O)C1CCN(c2cc(-c3ccc(Cl)cc3)nc3ccccc23)CC1` [1-[2-(4-Chlorophenyl)-4-quinolinyl]-N,N-dimethyl-4-piperidinecarboxamide], the 50% inhibitory concentration (IC50) in series [1] (setting [4]) turned out to be 80 nM. In addition, the ED50 in series [2] (setting [5]) came to 24 mg/kg. This molecule also came in with an LD50 at 24 h in series [3] of over 1000 mg/kg.
Turning to `CN1C(=O)CN=C(c2ccccc2)c2cc(Cl)ccc21` [Diazepam, reference compound], the ED50 in series [2] (setting [6]) stood at 1 mg/kg.
Consider `CNC(=O)C1CCN(c2cc(-c3ccc(F)cc3)nc3ccc(Cl)cc23)CC1` [1-[6-Chloro-2-(4-fluorophenyl)-4-quinolinyl]-N-methyl-4-piperidinecarboxamide], for which, in series [1] (setting [4]), the IC50 came out at 10.5 nM. Also, the median effective dose (ED50) in series [2] (setting [5]) came out at 37 mg/kg. In series [3], the median lethal dose (LD50) at 24 h is over 1000 mg/kg.
Take `Cc1ccc(-c2cc(N3CCC(C(N)=O)CC3)c3cc(Cl)ccc3n2)cc1` [1-[6-Chloro-2-(4-methylphenyl)-4-quinolinyl]-4-piperidinecarboxamide]: in series [1] (setting [4]), the half-maximal inhibitory concentration (IC50) turned out to be 60 nM. In addition, in series [2] (setting [5]), the ED50 is over 100 mg/kg. For the same molecule, in series [3], the median lethal dose (LD50) at 24 h was over 1000 mg/kg.
Take `CCNC(=O)C1CCN(c2cc(-c3ccc(Cl)cc3)nc3ccccc23)CC1` [1-[2-(4-chlorophenyl)-4-quinolinyl]-N-ethyl-4-piperidinecarboxamide]: the IC50 in series [1] (setting [4]) turned out to be 9 nM. For the same molecule, the ED50 in series [2] (setting [5]) stood at 26 mg/kg. The molecule further registered a 50% lethal dose (LD50) at 24 h in series [3] of over 1000 mg/kg.
As to `CCNC(=O)C1CCN(c2cc(-c3ccccc3)nc3ccc(F)cc23)CC1` [N-Ethyl-1-[6-fluoro-2-phenyl-4-quinolinyl]-4-piperidinecarboxamide], the IC50 in series [1] (setting [4]) turned out to be 2.8 nM. Moreover, the ED50 in series [2] (setting [5]) is 58 mg/kg. This molecule showed a 50% lethal dose (LD50) at 24 h in series [3] of over 1000 mg/kg.
Regarding `NC(=O)C1CCN(c2cc(-c3ccccc3)nc3ccc(F)cc23)CC1` [1-[6-Fluoro-2-phenyl-4-quinolinyl]-4-piperidinecarboxamide], the IC50 in series [1] (setting [4]) was 3.6 nM. The ED50 in series [2] (setting [5]) was found to be 120 mg/kg. The LD50 at 24 h in series [3] was over 1000 mg/kg.
For the molecule `CNC(=O)C1CCN(c2cc(-c3ccc(F)cc3)nc3ccc(F)cc23)CC1` [1-6-Fluoro-2-(4-fluorophenyl)-4-quinolinyl)]-N-methyl-4-piperidinecarboxamide], the IC50 in series [1] (setting [4]) came out at 1.8 nM. For the same molecule, the ED50 in series [2] (setting [5]) is 13 mg/kg. The same molecule returned an LD50 at 24 h in series [3] of over 1000 mg/kg.
The matching figures for `NC(=O)C1CCN(c2cc(-c3ccc(F)cc3)nc3ccc(F)cc23)CC1` [1-[6-Fluoro-2-(4-fluorophenyl)-4-quinolinyl]-4-piperidinecarboxamide]: 1 nM, 5 mg/kg and over 1000 mg/kg.
The matching figures for `NC(=O)C1CCN(c2cc(-c3ccc(Cl)cc3)nc3ccccc23)CC1` [1-[2-(4-chlorophenyl)-4-quinolinyl]-4-piperidinecarboxamide]: 29 nM, 24 mg/kg and over 1000 mg/kg.
Take `CCN(CC)C(=O)C1CCN(c2cc(-c3ccc(Cl)cc3)nc3ccccc23)CC1` [1-[2-(4-Chlorophenyl)-4-quinolinyl]-N,N-diethyl-4-piperidinecarboxamide]: in series [1] (setting [4]), the 50% inhibitory concentration (IC50) is 500 nM.
`Cc1ccc2nc(-c3ccc(F)cc3)cc(N3CCC(C(N)=O)CC3)c2c1` [1-[2-(4-fluorophenyl)-6-methyl-4-quinolinyl]-4-piperidinecarboxamide]: the IC50 in series [1] (setting [4]) amounted to 34 nM. Further, the ED50 in series [2] (setting [5]) is over 100 mg/kg. The LD50 at 24 h in series [3] was over 1000 mg/kg.
For `CCCNC(=O)C1CCN(c2cc(-c3ccccc3)nc3ccc(F)cc23)CC1` [1-[6-Fluoro-2-phenyl-4-quinolinyl]-N-propyl-4-piperidinecarboxamide], the half-inhibitory concentration (IC50) in series [1] (setting [4]) stood at 13 nM. In series [2] (setting [5]), the ED50 was over 100 mg/kg. Besides, the LD50 at 24 h in series [3] is over 1000 mg/kg.
Regarding `CCC1(c2ccccc2)C(=O)NC(=O)NC1=O` [Sodium Phenobarbital, reference compound], in series [2] (setting [6]), the 50% effective dose (ED50) was 19 mg/kg.
For `CCN(CC)CCN1C(=O)CN=C(c2ccccc2F)c2cc(Cl)ccc21` [Flurazepam, reference compound], the half-maximal inhibitory concentration (IC50) in series [1] (standard drugs, read-out: IC50) was determined as 15.6 nM.
Turning to `Cc1ccc(-c2cc(N3CCC(C(N)=O)CC3)c3ccccc3n2)cc1` [1-[2-(4-methylphenyl)-4-quinolinyl]-4-piperidinecarboxamide], the IC50 in series [1] (setting [4]) turned out to be 1.7 nM. The ED50 in series [2] (setting [5]) was found to be 37 mg/kg. For the same molecule, the LD50 at 24 h in series [3] was over 1000 mg/kg.
As for `CCNC(=O)C1CCN(c2cc(-c3ccc(F)cc3)nc3ccc(F)cc23)CC1` [1-Ethyl-1-[6-fluoro-2-(4-fluorophenyl)-4-quinolinyl]-4-piperidinecarboxamide], the IC50 in series [1] (setting [4]) was determined as 3 nM. Further, the ED50 in series [2] (setting [5]) amounted to 22 mg/kg. This molecule came in with a median lethal dose (LD50) at 24 h in series [3] of over 1000 mg/kg.
The matching figures for `NC(=O)C1CCN(c2cc(-c3ccc(F)cc3)nc3ccccc23)CC1` [1-[2-(4-Fluorophenyl)-4-quinolinyl]-4-piperidinecarboxamide]: 1.1 nM, over 100 mg/kg and over 1000 mg/kg.

The values above are taken from patent US4560692A, “4-Piperidino-2-phenylquinolines” (Hoffmann-La Roche Inc., priority 1984, dated 1985).
